Columns and labels:
ABCA1 mRNA = ABCA1 mRNA induction in cultured peritoneal macrophages; assay type: cell-based, mice; conditions: 24 hours
Excerpt: The individual contributions of both receptors to macrophage gene expression were examined by first measuring the amount of mRNA encoding LXRα and LXRβ in thioglycolate-elicited peritoneal macrophages obtained from mixed wildtype mice. Thioglycolate-elicited peritoneal macrophages were isolated from mice 4 days after peritoneal injection of thioglycolate media. Peritoneal macrophages were harvested by lavage of the peritoneum with phosphate buffered saline (PBS), cells were washed, transferred to 60 mm culture plates and incubated at 37° C. in RPMI 1640 media (Life Technologies) containing 10% FBS, 2 mmol/L glutamine, 100 μg/mL streptomycin and 100 IU penicillin (Life Technologies). After 5 hours at 37° C., cells were washed 5 times with PBS to remove non-adherent cells and adherent cells were further incubated in RPMI 1640 media supplemented with 10% FBS for 24 hours. To determine the mRNA levels of LXRα and LXRβ, after 24 hours total RNA was isolated from cultured macrophages using RNeasy kits (QIAGEN Inc.) according to the supplier's total RNA isolation procedure. The RNA samples were further treated with deoxyribonuclease I to eliminate contaminating genomic DNA. LXRα and LXRβ mRNA levels were than analyzed by real-time based quantitative PCR using Perkin Elmer ABI Prism 7700 and Sequence Detection System software (Perkin Elmer). […] To further examine LXR-dependent gene expression in macrophages, peritoneal macrophages were isolated as described above from mixed wildtype, LXRα−/− (C57BL/6), LXRβ−/−, and LXRαβ−/− mice. After removal of non-adherent cells, the remaining macrophages were than cultured in either the absence or presence of LXR pan-agonist (1.0 μM Compound 1) for 24 hours. At the end of the experiment total RNA was isolated from cultured macrophages using RNeasy kits (QIAGEN Inc.) according to the supplier's total RNA isolation procedure. RNA samples were further treated with deoxyribonuclease I to eliminate contaminating genomic DNA before use. The LXR agonist-dependent induction of the ABCA1 and ABCG1 mRNAs were than analyzed by real-time based quantitative PCR using Perkin Elmer ABI Prism 7700 and Sequence Detection System software (Perkin Elmer). ABCA1 and ABCG1 function as efflux pumps that mediate the transfer of intracellular cholesterol out of cells to HDL particles, a process referred to as reverse cholesterol transport. […] Elimination of LXRα activity (LXRα−/−) has no effect on the agonist-dependent response. In contrast, elimination of LXRβ activity (LXRβ−/−) reduces the agonist-dependent induction of ABCA1 by 82% and the ABCG1 induction by 50%. […] Thus LXRβ alone is sufficient to allow the maximum induction of ABCA1 and ABCG1 in peritoneal macrophages.

LXRβ = molecular target: T1, LXRβ (Homo sapiens, UniProt P55055); conditions: stated as considered, no test described; cited from earlier work
T1 sequence (P55055 1-460): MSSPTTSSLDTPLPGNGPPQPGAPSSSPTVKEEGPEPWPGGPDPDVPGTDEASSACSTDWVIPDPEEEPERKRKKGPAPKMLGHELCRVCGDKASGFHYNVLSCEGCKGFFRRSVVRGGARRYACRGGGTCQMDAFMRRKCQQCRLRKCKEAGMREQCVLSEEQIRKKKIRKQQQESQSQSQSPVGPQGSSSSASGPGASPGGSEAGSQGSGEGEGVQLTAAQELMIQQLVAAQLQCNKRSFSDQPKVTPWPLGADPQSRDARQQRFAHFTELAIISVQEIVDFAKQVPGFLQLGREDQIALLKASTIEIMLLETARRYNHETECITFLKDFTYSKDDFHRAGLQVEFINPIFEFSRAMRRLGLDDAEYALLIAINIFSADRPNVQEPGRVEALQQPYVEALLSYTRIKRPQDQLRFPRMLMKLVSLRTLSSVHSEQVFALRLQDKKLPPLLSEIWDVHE

[1] = Plasma HDL cholesterol levels in wildtype and LXR knockout mice; assay type: in vivo; conditions: 10 mg/kg daily oral, day 7
Procedure: To determine the individual contribution of LXRα and LXRβ to increases in HDL cholesterol levels, Compound 1 (10 mg/kg) was administered for seven days by daily oral gavage in a sesame oil/ethanol vehicle via a 1 cc syringe fitted with a 20G disposable feeding needle. Compound was solvated in ethanol (5% final volume) and brought up to final volume with sesame oil (Sigma, St. Louis, Mo.). On day 7 mice were anesthetized with isofluorane and blood samples were obtained by retro-orbital plexus puncture. Blood samples were collected in heparinized tubes, centrifuged to obtain plasma and stored at -20° C. HDL levels were determined by precipitating non-HDL cholesterol from plasma samples using a precipitating reagent (Wako Diagnostic 278-67409, Richmond, Va.). The remaining HDL cholesterol was than quantitated using a colorimetric enzymatic assay adapted to a 96 well plate format (Infinity Total Cholesterol Reagent, Sigma, St. Louis, Mo.). […] (23%) strains and unchanged when LXRβ is eliminated. […] Thus either LXRα or LXRβ alone is competent to elevate HDL cholesterol in response to agonist treatment (FIG. 5). The lack of selectivity in HDL regulation contrasts the selective decrease in triglyceride levels observed only when LXRα is eliminated (LXRα-/-, LXRαβ-/-; FIGS. 1 and 2).

[2] = system: lipoprotein lipase (LPL) mRNA; assay: Liver lipoprotein lipase (LPL) mRNA by quantitative PCR in treated mice; assay type: in vivo; conditions: 10 mg/kg daily oral; for LPL mRNA induction: day 7
Excerpt: To decipher the physiological roles of LXRα and LXRβ mice, seven different lines of mice encompassing four unique LXR genotypes (LXRα+/+, LXRβ+/+=wildtype; LXRα−/−, LXRβ+/+=LXRα−/−; LXRα+/+, LXRβ−/−=LXRβ−/−; LXRα−/−, LXRβ−/−=LXRαβ−/−) were studied. Genetic knockouts of LXRα( LXRα−/−) were generated in two independent mouse strain backgrounds (C57BL/6 and A129). Genetic knockouts of LXRβ (LXRβ−/−) and the double knockout of LXRα and LXRβ (LXRαβ−/−) were generated in a mixed genetic background (C57BL/6×A129). The three appropriate wildtype (LXRα+/+, LXRβ+/+) mouse lines were used as controls. Mice from each line were treated for seven days with 10 mg compound/kg body weight of the LXR agonist Compound 1: N-(2,2,2-trifluoroethyl)-N-[4-(2,2,2- trifluoro-1-hydroxy-1-trifluoromethylethyl)-phenyl]-benzene sulfonamide. […] Compound 1 was administered by daily oral gavage in a sesame oil/ethanol vehicle via a 1-cc syringe fitted with a 20G disposable feeding needle. Compound was solvated in ethanol (5% final volume) and brought up to final volume with sesame oil (Sigma, St. Louis, Mo.).

With O=S(=O)(c1ccccc1)N(CC(F)(F)F)c1ccc(C(O)(C(F)(F)F)C(F)(F)F)cc1 [Compound 1, N-(2,2,2-trifluoroethyl)-N-[4-(2,2,2-trifluoro-1-hydroxy-1-trifluoromethylethyl)-phenyl]-benzene sulfonamide] the “agonist-dependent ABCA1 mRNA induction” value (ABCA1 mRNA; LXRαβ−/− macrophages, 1.0 μM) was “completely blocks the response”, the “agonist-dependent ABCA1 mRNA induction” value (ABCA1 mRNA; LXRα−/− macrophages, 1.0 μM) was “no effect” and the “reduction of agonist-dependent induction of ABCA1” value (ABCA1 mRNA; LXRβ−/− macrophages versus wildtype, 1.0 μM) was 82%. The fold induction at 1 µM (ABCA1 mRNA; Mus musculus, Macrophage, wildtype macrophages) was 28, the “binding and activation of LXRβ” value (LXRβ) was “binds and activates both LXRα and LXRβ with similar potency and efficacy” and the “agonist-dependent increase in HDL” value ([1]; LXRαβ−/− mice) was “completely lost”. For the same molecule, the “reduction of agonist-dependent increase in HDL” value ([1]; LXRα−/− A129 mice versus wildtype) was 23%, the “reduction of agonist-dependent increase in HDL” value ([1]; LXRα−/− C57BL/6 mice versus wildtype) was 8% and the “agonist-dependent increase in HDL” value ([1]; LXRβ−/− mice) was “unchanged”. The “effect on HDL levels” value ([1]; wildtype mice) was “significant increase in HDL levels”, the “LPL mRNA induction” value ([2]; LXRα−/− mice (C57BL/6 and A129)) was “completely blocks the pan-agonist induction of LPL” and the “LPL mRNA induction” value ([2]; LXRβ−/− mice) was “little or no effect”. For the same molecule, the fold induction at 10 mg/kg ([2]; Mus musculus, 168 h, wildtype mice, day 7, read-out: LPL mRNA fold induction (+Compound 1/vehicle)) was 3 to 9.
